ChEMBL document CHEMBL1139156, “Novel naphthyridines are histamine H3 antagonists and serotonin reuptake transporter inhibitors” (Bioorg Med Chem Lett, 2007)

Key:
[1] = target: T1, Histamine H3 receptor (Homo sapiens, UniProt Q9Y5N1); assay: Antagonist activity at human histamine H3 receptor expressed in SK-N-MC cells assessed as effect on cAMP accumulation; type: functional, cell-based; details: read-out: pA2 (converted)
[2] = target: Sodium-dependent serotonin transporter (Rattus norvegicus, UniProt P31652); assay: Binding affinity to rat SERT
[3] = target: T1, Histamine H3 receptor; assay: Displacement of N-[3H]alpha-methylhistamine from human histamine H3 receptor expressed in SK-N-MC cells; type: cell-based
[4] = target: Sodium-dependent serotonin transporter (Homo sapiens, UniProt P31645); assay: Binding affinity to human SERT
[5] = Cmax in rat plasma at 10 mg/kg, po after 1 hr; type: ADME, organism-based; parameters: dose 10 mg/kg, route oral
[6] = Cmax in rat brain at 10 mg/kg, po after 6 hrs; type: ADME, organism-based; parameters: dose 10 mg/kg, route oral
[7] = Drug level in rat brain at 10 mg/kg, po after 24 hrs; type: ADME, organism-based; parameters: dose 10 mg/kg, route oral; details: read-out: Drug uptake

Sequence of Sodium-dependent serotonin transporter (Homo sapiens, UniProt P31645) (P31645 whole entry): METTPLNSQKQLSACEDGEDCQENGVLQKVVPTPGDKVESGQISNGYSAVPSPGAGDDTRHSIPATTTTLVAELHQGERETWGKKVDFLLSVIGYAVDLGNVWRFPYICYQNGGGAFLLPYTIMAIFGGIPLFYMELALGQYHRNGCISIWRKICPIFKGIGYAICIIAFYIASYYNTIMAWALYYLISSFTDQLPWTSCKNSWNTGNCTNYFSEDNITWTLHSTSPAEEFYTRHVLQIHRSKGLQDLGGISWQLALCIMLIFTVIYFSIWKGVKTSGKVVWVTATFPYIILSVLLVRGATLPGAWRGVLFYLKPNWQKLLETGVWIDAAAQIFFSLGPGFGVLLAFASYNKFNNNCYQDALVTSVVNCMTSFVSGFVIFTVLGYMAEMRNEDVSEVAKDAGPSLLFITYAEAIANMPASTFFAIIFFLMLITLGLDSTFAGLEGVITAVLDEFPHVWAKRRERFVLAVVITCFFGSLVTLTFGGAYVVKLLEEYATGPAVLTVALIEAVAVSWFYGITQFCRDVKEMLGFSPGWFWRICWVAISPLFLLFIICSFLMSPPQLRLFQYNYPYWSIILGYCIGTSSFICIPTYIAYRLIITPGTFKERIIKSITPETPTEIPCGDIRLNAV
Sequence of Sodium-dependent serotonin transporter (Rattus norvegicus, UniProt P31652) (P31652 whole entry): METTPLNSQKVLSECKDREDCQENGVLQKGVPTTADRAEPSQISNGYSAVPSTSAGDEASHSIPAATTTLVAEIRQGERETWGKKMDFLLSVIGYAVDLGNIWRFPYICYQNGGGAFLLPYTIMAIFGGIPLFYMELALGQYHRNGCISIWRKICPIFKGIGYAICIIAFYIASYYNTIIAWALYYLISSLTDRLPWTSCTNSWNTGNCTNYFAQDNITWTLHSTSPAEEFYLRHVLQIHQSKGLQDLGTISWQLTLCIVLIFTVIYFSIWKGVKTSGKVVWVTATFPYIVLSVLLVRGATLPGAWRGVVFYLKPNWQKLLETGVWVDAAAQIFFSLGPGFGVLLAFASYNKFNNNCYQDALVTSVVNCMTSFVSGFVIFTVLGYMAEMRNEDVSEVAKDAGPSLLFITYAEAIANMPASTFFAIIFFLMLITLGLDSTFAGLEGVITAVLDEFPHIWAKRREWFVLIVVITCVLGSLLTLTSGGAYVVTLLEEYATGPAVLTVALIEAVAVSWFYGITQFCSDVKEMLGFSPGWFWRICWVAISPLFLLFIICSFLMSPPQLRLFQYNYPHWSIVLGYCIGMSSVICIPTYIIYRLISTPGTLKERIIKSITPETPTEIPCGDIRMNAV
T1 sequence (Q9Y5N1 whole entry): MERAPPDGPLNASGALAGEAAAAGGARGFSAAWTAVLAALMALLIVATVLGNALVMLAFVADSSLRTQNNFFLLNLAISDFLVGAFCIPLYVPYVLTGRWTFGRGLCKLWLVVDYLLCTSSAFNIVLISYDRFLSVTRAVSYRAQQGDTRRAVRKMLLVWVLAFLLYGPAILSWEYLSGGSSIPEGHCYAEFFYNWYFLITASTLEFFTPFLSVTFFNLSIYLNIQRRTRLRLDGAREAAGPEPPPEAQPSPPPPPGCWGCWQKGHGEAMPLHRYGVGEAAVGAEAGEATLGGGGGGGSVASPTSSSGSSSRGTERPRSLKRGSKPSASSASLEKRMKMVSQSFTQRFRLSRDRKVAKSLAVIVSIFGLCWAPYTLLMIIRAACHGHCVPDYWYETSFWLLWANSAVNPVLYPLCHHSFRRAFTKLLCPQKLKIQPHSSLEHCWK

Compound	Kb [1] [µM]	other results
COc1cccc(C2CN(C)Cc3cc(OCCCN4CCCCC4)ncc32)c1 (centres undefined)	0.0257	–
COc1ccc(C2CNCc3cc(OCCCN4CCCCC4)ncc32)cc1 (centres undefined)	0.00589	Ki [2]: 0.046 µM
CN1Cc2cc(OCCCN3CCCCC3)ncc2C(c2ccc(F)cc2)C1 (centres undefined)	0.00355	–
Clc1ccc(C2CNCc3cc(OCCCN4CCCCC4)ncc32)cc1 (centres undefined)	0.00389	–
CN1Cc2cc(OCCCN3CCCCC3)ncc2C(c2ccccc2)C1 (centres undefined)	0.0214	–
c1ccc(C2CNCc3cc(OCCCN4CCCCC4)ncc32)cc1 (centres undefined)	0.000724	–
CN1Cc2cc(OCCCN3CCCCC3)ncc2C(c2ccccc2F)C1 (centres undefined)	0.00105	–
Clc1ccccc1C1CNCc2cc(OCCCN3CCCCC3)ncc21 (centres undefined)	0.00105	–
CN1Cc2cc(OCCCN3CCCCC3)ncc2C(c2ccc(Cl)c(F)c2)C1 (centres undefined)	0.0166	Ki [3]: 0.007 µM; Ki [4]: 0.147 µM; Ki [2]: 0.026 µM
CCN(CC)CCCOc1cc2c(cn1)C(c1ccc(Cl)c(Cl)c1)CNC2 (centres undefined)	0.0141	–
CCN(CC)CCCOc1cc2c(cn1)C(c1ccccc1)CN(C)C2 (centres undefined)	0.000661	–
COc1ccc(C2CN(C)Cc3cc(OCCCN4CCOCC4)ncc32)cc1 (centres undefined)	0.0117	–
CC(C)N1CCC(COc2cc3c(cn2)C(c2ccc(Cl)c(Cl)c2)CNC3)CC1 (centres undefined)	–	Ki [3]: 0.013 µM; Ki [4]: 0.037 µM; Ki [2]: 0.018 µM
COc1ccc(C2CNCc3cc(OCC4CCN(C(C)C)CC4)ncc32)cc1 (centres undefined)	0.00355	–
CN1Cc2cc(OCCCN3CCCCC3)ncc2C(c2ccc(Cl)c(Cl)c2)C1 (centres undefined)	0.0182	–
c1ccc(C2CNCc3cc(OCCCN4CCOCC4)ncc32)cc1 (centres undefined)	–	Cmax [5]: 0.22 µM; Cmax [6]: 5.56 µM; concentration at 24 h [7]: > 0.6 µM; Ki [3]: 0.013 µM; Ki [4]: 4.77 µM
CN1Cc2cc(OCCCN3CCCCC3)ncc2C(c2cccc(Cl)c2)C1 (centres undefined)	0.00977	–
Clc1ccc(C2CNCc3cc(OCCCN4CCCCC4)ncc32)cc1Cl (centres undefined)	0.0112	Ki [4]: 0.032 µM
